# From patent US8435587B2, “High-potency sweetener composition with long-chain primary aliphatic saturated alcohol and compositions sweetened therewith” (The Coca-Cola Company, priority 2005, dated 2013)
# How the values were obtained:
# [1] = Rate of dissolution of rebaudioside A forms in H2O at 25° C.; type: physicochemical
# [2] = type: physicochemical
# Description: A solution of rebaudioside A (>97% pure by HPLC) was prepared in double distilled water (12.5 gm in 50 mL, 25% concentration) by stirring the mixture at 40° C. for 5 minutes. An amorphous form of rebaudioside A was formed by immediately using the clear solution for spray drying with the Lab-Plant spray drier SD-04 instrument (Lab-Plant Ltd., West Yorkshire, U.K.). The solution was fed through the feed pump into the nozzle atomizer which atomized it into a spray of droplets with the help of a constant flow of nitrogen/air. […] This dry powder (11-12 g, H2O 6.74%) was discharged continuously from the drying chamber and was collected in a bottle.
# [3] = Sensory evaluation of sweetness linger and sugar-like taste by expert panel; type: in vivo; parameters: key: 0: no sweetness linger; 1: very slight sweetness linger; 2: slight sweetness linger; 3: moderate sweetness linger; 4: moderately high sweetness linger; 5: high sweetness linger
# Description: As used herein, the phrases “sugar-like characteristic,” “sugar-like taste,” “sugar-like sweet,” “sugary,” and “sugar-like” are synonymous. […] These characteristics are dimensions in which the taste of sucrose is different from the tastes of natural and synthetic high-potency sweeteners. Whether or not a characteristic is more sugar-like is determined by expert sensory panel assessments of sugar and compositions comprising at least one natural and/or synthetic high-potency sweetener, both with and without a sweet taste improving composition. Such assessments quantify similarities of the characteristics of compositions comprising at least one natural and/or synthetic high-potency sweetener, both with and without a sweet taste improving composition, with those comprising sugar. Suitable procedures for determining whether a composition has a more sugar-like taste are well known in the art.
# In a particular embodiment, a panel of assessors is used to measure the reduction of sweetness linger. […] A decrease in score for a time point measured after the sample has cleared the mouth indicates there has been a reduction in sweetness perception. […]
# [4] = Sweetness level as sucrose equivalent
Structure (SMILES),"Rate of dissolution in H2O at 25° C. ([1]; H2O, 25° C.)",Rate of dissolution in H2O at 25° C. ([1]; in words),Solubility in water [2] [%],"Sweetness linger rating ([3]; control: 400 ppm REBA in citric acid/potassium citrate composition, no additive)","Sweetness linger rating ([3]; control: 500 ppm REBA in carbon-treated water, phosphoric acid pH 2.4-2.5, no additive)",Sucrose equivalent ([4]; 180 ppm rebaudioside A in diluted beverage) [% sucrose],Sucrose equivalent ([4]; 400 ppm REBA) [g sucrose]
"C=C1C[C@@]23CC[C@H]4[C@@](C)(CCC[C@@]4(C)C(=O)O[C@@H]4O[C@H](CO)[C@@H](O)[C@H](O)[C@H]4O)[C@@H]2CC[C@]1(O[C@@H]1O[C@H](CO)[C@@H](O)[C@H](O[C@@H]2O[C@H](CO)[C@@H](O)[C@H](O)[C@H]2O)[C@H]1O[C@@H]1O[C@H](CO)[C@@H](O)[C@H](O)[C@H]1O)C3 [Form 1, rebaudioside A]",(<0.2%/ %/60 minutes,Very low,–,–,–,–,–
"C=C1C[C@@]23CC[C@H]4[C@@](C)(CCC[C@@]4(C)C(=O)O[C@@H]4O[C@H](CO)[C@@H](O)[C@H](O)[C@H]4O)[C@@H]2CC[C@]1(O[C@@H]1O[C@H](CO)[C@@H](O)[C@H](O[C@@H]2O[C@H](CO)[C@@H](O)[C@H](O)[C@H]2O)[C@H]1O[C@@H]1O[C@H](CO)[C@@H](O)[C@H](O)[C@H]1O)C3 [Form 2, rebaudioside A]",(<30%/ %/5 minutes,Intermediate,–,–,–,–,–
"C=C1C[C@@]23CC[C@H]4[C@@](C)(CCC[C@@]4(C)C(=O)O[C@@H]4O[C@H](CO)[C@@H](O)[C@H](O)[C@H]4O)[C@@H]2CC[C@]1(O[C@@H]1O[C@H](CO)[C@@H](O)[C@H](O[C@@H]2O[C@H](CO)[C@@H](O)[C@H](O)[C@H]2O)[C@H]1O[C@@H]1O[C@H](CO)[C@@H](O)[C@H](O)[C@H]1O)C3 [REBA, rebaudioside A]",–,–,–,5,5,5,8

# The next lines start with results.
"Rate of dissolution in H2O at 25° C. ([1]; H2O, 25° C.)",Rate of dissolution in H2O at 25° C. ([1]; in words),Solubility in water [2] [%],Structure (SMILES),"Sweetness linger rating ([3]; control: 400 ppm REBA in citric acid/potassium citrate composition, no additive)","Sweetness linger rating ([3]; control: 500 ppm REBA in carbon-treated water, phosphoric acid pH 2.4-2.5, no additive)",Sucrose equivalent ([4]; 180 ppm rebaudioside A in diluted beverage) [% sucrose],Sucrose equivalent ([4]; 400 ppm REBA) [g sucrose]
(>30%/ %/5 minutes,High,–,"C=C1C[C@@]23CC[C@H]4[C@@](C)(CCC[C@@]4(C)C(=O)O[C@@H]4O[C@H](CO)[C@@H](O)[C@H](O)[C@H]4O)[C@@H]2CC[C@]1(O[C@@H]1O[C@H](CO)[C@@H](O)[C@H](O[C@@H]2O[C@H](CO)[C@@H](O)[C@H](O)[C@H]2O)[C@H]1O[C@@H]1O[C@H](CO)[C@@H](O)[C@H](O)[C@H]1O)C3 [Form 3, rebaudioside A]",–,–,–,–
(>35.0%/ %/5 minutes,High,> 35.0,"C=C1C[C@@]23CC[C@H]4[C@@](C)(CCC[C@@]4(C)C(=O)O[C@@H]4O[C@H](CO)[C@@H](O)[C@H](O)[C@H]4O)[C@@H]2CC[C@]1(O[C@@H]1O[C@H](CO)[C@@H](O)[C@H](O[C@@H]2O[C@H](CO)[C@@H](O)[C@H](O)[C@H]2O)[C@H]1O[C@@H]1O[C@H](CO)[C@@H](O)[C@H](O)[C@H]1O)C3 [Form 4, rebaudioside A]",–,–,–,–
